Measured values as given in US10029992B2, “Diaminotriazine compounds and their use as herbicides” (BASF SE, priority 2014, dated 2018).

Legend:
ABUTH [1] = experiment: Greenhouse experiment, pre-emergence treatment; format: in vivo, Abutilon theophrasti; settings: pre-emergence method
Description: (§1) The culture containers used were plastic flowerpots containing loamy sand with approximately 3.0% of humus as the substrate. The seeds of the test plants were sown separately for each species.
(§2) For the pre-emergence treatment, the active ingredients, which had been suspended or emulsified in water, were applied directly after sowing by means of finely distributing nozzles. The containers were irrigated gently to promote germination and growth and subsequently covered with transparent plastic hoods until the plants had rooted. This cover caused uniform germination of the test plants, unless this had been impaired by the active ingredients.
(§3) Depending on the species, the plants were kept at 10-25° C. or 20-35° C., respectively.
(§4) The test period extended over 2 to 4 weeks. During this time, the plants were tended, and their response to the individual treatments was evaluated.
(§5) Evaluation was carried out using a scale from 0 to 100. 100 means no emergence of the plants, or complete destruction of at least the aerial moieties, and 0 means no damage, or normal course of growth. A moderate herbicidal activity is given at values of at least 60, a good herbicidal activity is given at values of at least 70, and a very good herbicidal activity is given at values of at least 85.
(§6) The plants used in the greenhouse experiments were of the following species: […]

ECHCG = experiment: Greenhouse experiment, pre-emergence treatment; format: in vivo, Echinochloa crus-galli; settings: pre-emergence method
Description: as §1, §2, §3, §4, §5, §6

SETFA [2] = experiment: Greenhouse experiment, pre-emergence treatment; format: in vivo, Setaria faberi; settings: pre-emergence method
Description: (§7) The seeds of the test plants were sown separately for each species. For the pre-emergence treatment, the active ingredients, which had been suspended or emulsified in water, were applied directly after sowing by means of finely distributing nozzles. The containers were irrigated gently to promote germination and growth and subsequently covered with transparent plastic hoods until the plants had rooted. This cover caused uniform germination of the test plants, unless this had been impaired by the active ingredients. Depending on the species, the plants were kept at 10-25° C. or 20-35° C., respectively. The test period extended over 2 to 4 weeks. During this time, the plants were tended, and their response to the individual treatments was evaluated. Evaluation was carried out using a scale from 0 to 100. 100 means no emergence of the plants, or complete destruction of at least the aerial moieties, and 0 means no damage, or normal course of growth. A moderate herbicidal activity is given at values of at least 60, a good herbicidal activity is given at values of at least 70, and a very good herbicidal activity is given at values of at least 85. […] [table]

AMARE [3] = experiment: Greenhouse experiment, pre-emergence treatment; format: in vivo, Amaranthus retroflexus; settings: pre-emergence method; for herbicidal activity against AMARA: application rate 125 g/ha
Description: as §7

APESV = experiment: Greenhouse experiment, pre-emergence treatment; format: in vivo, Apera spica-venti; settings: pre-emergence method
Description: as §1, §2, §3, §4, §5, §6

ABUTH [4] = experiment: Greenhouse experiment, post-emergence treatment; format: in vivo, Abutilon theophrasti; settings: post-emergence method, application rate 125 g/ha
Protocol: (§8) The seeds of the test plants were sown separately for each species. […] For this purpose, the test plants were either sown directly and grown in the same containers, or they were first grown separately as seedlings and transplanted into the test containers a few days prior to treatment. Depending on the species, the plants were kept at 10-25° C. or 20-35° C., respectively. The test period extended over 2 to 4 weeks. During this time, the plants were tended, and their response to the individual treatments was evaluated. Evaluation was carried out using a scale from 0 to 100. 100 means no emergence of the plants, or complete destruction of at least the aerial moieties, and 0 means no damage, or normal course of growth. A moderate herbicidal activity is given at values of at least 60, a good herbicidal activity is given at values of at least 70, and a very good herbicidal activity is given at values of at least 85. […] [table]

AMARE [5] = experiment: Greenhouse experiment, post-emergence treatment; format: in vivo, Amaranthus retroflexus; settings: post-emergence method, application rate 125 g/ha
Protocol: as §8

SETFA [6] = experiment: Greenhouse experiment, post-emergence treatment; format: in vivo, Setaria faberi; settings: post-emergence method, application rate 125 g/ha
Protocol: as §8

Cc1cc(C)cc(Sc2cccc(F)c2Nc2nc(N)nc(C(C)(C)F)n2)c1 [Example 2]
herbicidal activity against ABUTH (ABUTH [1]; application rate 1000 g/ha): good (a good herbicidal activity is given at values of at least 70)

Cc1cc(C)cc(Oc2cccc(F)c2Nc2nc(N)nc(C(C)(C)F)n2)c1 [Example 5]
herbicidal activity against ABUTH (ABUTH [1]; application rate 0.25 kg/ha): very good (a very good herbicidal activity is given at values of at least 85)
herbicidal activity against ECHCG (ECHCG; application rate 0.25 kg/ha): very good (a very good herbicidal activity is given at values of at least 85)
herbicidal activity against SETFA (SETFA [2]; application rate 0.25 kg/ha): very good (a very good herbicidal activity is given at values of at least 85)

Cc1cccc(Oc2cccc(F)c2Nc2nc(N)nc(C(C)(C)F)n2)c1 [Example 7]
herbicidal activity against ABUTH (ABUTH [1]; application rate 0.5 kg/ha): good to very good
herbicidal activity against AMARE (AMARE [3]; application rate 0.5 kg/ha): good to very good
herbicidal activity against ECHCG (ECHCG; application rate 0.5 kg/ha): good to very good

Cc1cc(C)cc(Oc2cccc(F)c2Nc2nc(N)nc(C(C)F)n2)c1 (stereo not shown) [Example 11]
herbicidal activity against ABUTH (ABUTH [1]; application rate 0.125 kg/ha): very good (a very good herbicidal activity is given at values of at least 85)
herbicidal activity against ECHCG (ECHCG; application rate 0.125 kg/ha): very good (a very good herbicidal activity is given at values of at least 85)
herbicidal activity against SETFA (SETFA [2]; application rate 0.125 kg/ha): very good (a very good herbicidal activity is given at values of at least 85)

CC(C)(F)c1nc(N)nc(Nc2c(F)cccc2Oc2cc(C(F)(F)F)cc(C(F)(F)F)c2)n1 [Example 12]
herbicidal activity against AMARE (AMARE [3]; application rate 0.25 kg/ha): very good (a very good herbicidal activity is given at values of at least 85)
herbicidal activity against APESV (APESV; application rate 0.25 kg/ha): very good (a very good herbicidal activity is given at values of at least 85)
herbicidal activity against SETFA (SETFA [2]; application rate 0.25 kg/ha): very good (a very good herbicidal activity is given at values of at least 85)

CC(C)(F)c1nc(N)nc(Nc2c(F)cccc2Oc2cc(Cl)cc(Cl)c2)n1 [Example 13]
herbicidal activity against AMARE (AMARE [3]; application rate 0.25 kg/ha): very good (a very good herbicidal activity is given at values of at least 85)
herbicidal activity against APESV (APESV; application rate 0.25 kg/ha): very good (a very good herbicidal activity is given at values of at least 85)
herbicidal activity against SETFA (SETFA [2]; application rate 0.25 kg/ha): very good (a very good herbicidal activity is given at values of at least 85)

Cc1cc(C)cc(Oc2cccc(F)c2Nc2nc(N)nc(C3CCCCC3)n2)c1 [Example 15]
herbicidal activity against ABUTH (ABUTH [1]; application rate 1000 g/ha): very good (a very good herbicidal activity is given at values of at least 85)

Cc1cc(C)cc(Oc2cccc(F)c2Nc2nc(N)nc(C(C)(C)C)n2)c1 [Example 16]
herbicidal activity against ABUTH (ABUTH [1]; application rate 2000 g/ha): very good (a very good herbicidal activity is given at values of at least 85)
herbicidal activity against AMARE (AMARE [3]; application rate 2000 g/ha): very good (a very good herbicidal activity is given at values of at least 85)
herbicidal activity against APESV (APESV; application rate 2000 g/ha): very good (a very good herbicidal activity is given at values of at least 85)

CC(C)(F)c1nc(N)nc(Nc2c(F)cccc2Oc2cc(F)cc(F)c2)n1 [Example 24]
herbicidal activity against ABUTH (ABUTH [1]; application rate 0.25 kg/ha): very good (a very good herbicidal activity is given at values of at least 85)
herbicidal activity against APESV (APESV; application rate 0.25 kg/ha): very good (a very good herbicidal activity is given at values of at least 85)
herbicidal activity against ECHCG (ECHCG; application rate 0.25 kg/ha): very good (a very good herbicidal activity is given at values of at least 85)

Cc1cc(Cl)cc(Oc2cccc(F)c2Nc2nc(N)nc(C(C)(C)F)n2)c1 [Example 28]
herbicidal activity against ABUTH (ABUTH [1]; application rate 0.25 kg/ha): very good (a very good herbicidal activity is given at values of at least 85)
herbicidal activity against APESV (APESV; application rate 0.25 kg/ha): very good (a very good herbicidal activity is given at values of at least 85)
herbicidal activity against SETFA (SETFA [2]; application rate 0.25 kg/ha): very good (a very good herbicidal activity is given at values of at least 85)

COC(C)c1nc(N)nc(Nc2c(F)cccc2Oc2cc(C)cc(C)c2)n1 (stereo not shown) [Example 39]
herbicidal activity against ABUTH (ABUTH [1]; application rate 1000 g/ha): very good (a very good herbicidal activity is given at values of at least 85)
herbicidal activity against APESV (APESV; application rate 1000 g/ha): very good (a very good herbicidal activity is given at values of at least 85)

CC(C)(F)c1nc(N)nc(Nc2c(F)c(F)cc(Oc3ccccc3)c2F)n1 [Example 42]
herbicidal activity against ABUTH (ABUTH [1]; application rate 0.5 kg/ha): good to very good
herbicidal activity against AMARE (AMARE [3]; application rate 0.5 kg/ha): good to very good
herbicidal activity against ECHCG (ECHCG; application rate 0.5 kg/ha): good to very good

Cc1cc(C)cc(Oc2cc(F)c(F)c(Nc3nc(N)nc(C(C)(C)F)n3)c2F)c1 [Example 43]
herbicidal activity against ABUTH (ABUTH [1]; application rate 0.5 kg/ha): good to very good
herbicidal activity against AMARE (AMARE [3]; application rate 0.5 kg/ha): good to very good
herbicidal activity against SETFA (SETFA [2]; application rate 0.5 kg/ha): good to very good

CC(C)(F)c1nc(N)nc(Nc2c(F)cccc2Oc2cc(F)cc(C(F)(F)F)c2)n1 [Example 53]
herbicidal activity against ABUTH (ABUTH [4]): very good (a very good herbicidal activity is given at values of at least 85)
herbicidal activity against AMARE (AMARE [5]): very good (a very good herbicidal activity is given at values of at least 85)
herbicidal activity against SETFA (SETFA [6]): very good (a very good herbicidal activity is given at values of at least 85)

CC(C)(F)c1nc(N)nc(Nc2c(F)cccc2Oc2cc(F)cc(Cl)c2)n1 [Example 54]
herbicidal activity against ABUTH (ABUTH [4]): very good (a very good herbicidal activity is given at values of at least 85)
herbicidal activity against AMARE (AMARE [5]): very good (a very good herbicidal activity is given at values of at least 85)
herbicidal activity against SETFA (SETFA [6]): very good (a very good herbicidal activity is given at values of at least 85)

Cc1cc(OCC(F)(F)F)cc(Oc2cccc(F)c2Nc2nc(N)nc(C(C)(C)F)n2)c1 [Example 81]
herbicidal activity against ABUTH (ABUTH [1]; application rate 125 g/ha): good (a good herbicidal activity is given at values of at least 70)
herbicidal activity against AMARA (AMARE [3]): very good (a very good herbicidal activity is given at values of at least 85)
herbicidal activity against SETFA (SETFA [2]; application rate 125 g/ha): very good (a very good herbicidal activity is given at values of at least 85)

CC(C)(F)c1nc(N)nc(Nc2c(F)cccc2Oc2cc(F)cc(OC(F)F)c2)n1 [Example 82]
herbicidal activity against ABUTH (ABUTH [1]; application rate 125 g/ha): very good (a very good herbicidal activity is given at values of at least 85)
herbicidal activity against AMARA (AMARE [3]): very good (a very good herbicidal activity is given at values of at least 85)
herbicidal activity against SETFA (SETFA [2]; application rate 125 g/ha): very good (a very good herbicidal activity is given at values of at least 85)

CC(C)c1cccc(Oc2cccc(F)c2Nc2nc(N)nc(C(C)(C)F)n2)c1 [Example 89]
herbicidal activity against ABUTH (ABUTH [1]; application rate 500 g/ha): very good (a very good herbicidal activity is given at values of at least 85)
herbicidal activity against APESV (APESV; application rate 500 g/ha): very good (a very good herbicidal activity is given at values of at least 85)
herbicidal activity against ECHCG (ECHCG; application rate 500 g/ha): very good (a very good herbicidal activity is given at values of at least 85)

Cc1cc(C)cc(Oc2cccc(F)c2Nc2nc(N)nc(C3(F)CCCC3)n2)c1 [Example 96]
herbicidal activity against ABUTH (ABUTH [1]; application rate 500 g/ha): very good (a very good herbicidal activity is given at values of at least 85)
herbicidal activity against ECHCG (ECHCG; application rate 500 g/ha): very good (a very good herbicidal activity is given at values of at least 85)
herbicidal activity against SETFA (SETFA [2]; application rate 500 g/ha): very good (a very good herbicidal activity is given at values of at least 85)

CC(C)(F)c1nc(N)nc(Nc2c(F)cccc2Oc2cccc(OC(F)(F)F)c2)n1 [Example 97]
herbicidal activity against ABUTH (ABUTH [1]; application rate 500 g/ha): very good (a very good herbicidal activity is given at values of at least 85)
herbicidal activity against ECHCG (ECHCG; application rate 500 g/ha): very good (a very good herbicidal activity is given at values of at least 85)
herbicidal activity against SETFA (SETFA [2]; application rate 500 g/ha): very good (a very good herbicidal activity is given at values of at least 85)

Cc1cc(C)cc(Oc2cccc(C#N)c2Nc2nc(N)nc(C(C)(C)F)n2)c1 [Example 100]
herbicidal activity against ABUTH (ABUTH [1]; application rate 250 g/ha): good (a good herbicidal activity is given at values of at least 70)
herbicidal activity against APESV (APESV; application rate 250 g/ha): very good (a very good herbicidal activity is given at values of at least 85)
herbicidal activity against ECHCG (ECHCG; application rate 250 g/ha): very good (a very good herbicidal activity is given at values of at least 85)
